Test results: patent US11167039B2, “MET antibody drug conjugates” (priority 2016, dated 2021)

Legend:
[1] = tested on: MET expressing tumor cells; settings: reported, Strickler et al. 2016; cited from earlier work
[2] = tested on: HT-29 cells; settings: Strickler, J. H., et al., read-out: EC50 in a HT-29 killing assay; cited from earlier work
[3] = tested on: HT-29 colon cancer tumor xenografts; test: HT-29 mouse xenograft model; assay type: in vivo; settings: separate experiment(s), data not shown
Experimental: Female athymic nude mice age 6- to 7-weeks old are available commercially, including from Harlan Laboratories (Indianapolis, Ind.). The mice are allowed to acclimate for one week and fed ad libitum on a normal low fat (4.5%) diet, which may be continued for the duration of the study. Tumor cells may be purchased from ATCC and may be cultured in cell culture media such as RPMI 1640 (Life Technologies) with L-glutamine, 25 mM HEPES supplemented with 10% FBS and 1 mM Na Pyruvate. Cells may be detached, washed with serum free medium and then resuspended at a final concentration of 50×10^6 cells/mL in serum free RPMI 1640. Tumor cells, approximately 5×10^6, may be injected subcutaneously in the rear flank of subject mice in a 1:1 mixture of serum free growth medium and Matrigel (Becton Dickinson, Bedford, Mass.). Tumor and body weight measurements may be performed twice weekly. Prior to treatment, mice can be randomized based on tumor size using a randomization algorithm. Treatments may be started when the average tumor volume reaches 100 mm^3. […]
MET-ADCs and control hIgG4-MMAE may be prepared in Phosphate Buffered Saline (PBS) prior to dose. Tumor size may be determined by caliper measurements. […] Tumor volume data can be transformed to a log scale to equalize variance across time and treatment groups. Log volume data can be analyzed with two-way repeated measures ANOVA by time and treatment using SAS PROC MIXED software (SAS Institutes Inc, Cary, N.C.). Treatment groups are compared with the specified control group at each time point.

[4] = tested on: HT-29 cells; test: HT-29 cell-killing assay; assay type: cell-based, human; settings: HT-29 cells
Experimental: Therefore, the HT-29 cell line may be used to determine if test MET-ADCs can kill MET overexpressing tumor cells in vitro.
Briefly described, 2-3×10^3 cells/well in 100 μL of culture medium may be plated in 96 well plates and incubated overnight at 37° C., 5% CO2. The MET-ADCs, MET antibody(ies), control MMAE or control hIgG4 conjugated to MMAE with cysteine conjugation antibody(ies) may be diluted 1:3 in serum-free culture medium starting from 100 nM (final) in 50 μL as 3× concentrations to the HT-29 cells. At the end of an additional 5-6 days of cell growth at 37° C. in a humidified incubator with 5% CO2, the plates may be equilibrated to room temperature for 30 minutes and 100 μL/well of CellTiter-Glo® reagent (Promega Corp., Fitchburg, Wis.) may then be added to assess cell viability. Cell viability may be determined by measuring luminescence.
Various tumor cell lines and normal human cells may be tested for MET-ADC induced cell killing activity essentially as described above in Example 10 as assessed for MET receptor density. MET cell surface density was determined by indirect immunofluorescence staining of cell surface antigens on cultured cells using QIFIKIT (Dako). […] Following a forty-five minute incubation, cells may be incubated for 1 hour on ice with FITC conjugated antibody diluted 1:50 in FACS buffer. Then cells may be washed and receptor numbers may be determined by indirect immunofluorescence staining of the QIFIKIT beads using a Becton Dickinson LSRII flow cytometer.

[5] = tested on: pan-AKT phosphorylation (pAKT) in Caki-1 cells; test: Phosphor-AKT bioassay for MET agonist activity in Caki-1 cells; assay type: cell-based; settings: 5 μg/mL
Experimental: Because it has been reported that MET agonistic antibodies increased hepatocyte proliferation and toxicity, a phosphor-AKT assay may be used to test MET-ADCs for MET agonist activity. Briefly stated, Caki-1 cells may be starved overnight in serum-free medium with 0.1% BSA and then treated with ADCs or naked MET antibodies at 5 μg/mL for the desired durations. Cell lysates may be analyzed for phosphorylation of pan-AKT by MSD ELISA, for example.

| Substance | approximate threshold of MET cell surface molecules for sensitivity [1] | EC50 [2] | inhibition of HT-29 tumor growth [3] | cell killing activity in HT-29 cells [4] | MET agonist activity (induction of pan-AKT phosphorylation) [5] |
| --- | --- | --- | --- | --- | --- |
| ABBV-399 | > 100,000 | 9 nM | – | – | – |
| Emibetuzumab | – | – | did not inhibit HT-29 tumor growth | no significant cell killing activity | low to no agonist activity |
| MET-ADC #6: emibetuzumab conjugated with maleimidocaproyl-valine-citrulline-p-aminobenzoyloxycarbonyl-monomethyl auristatin E (Mal-C-vc-PABC-MMAE) | – | – | – | less active than MET-ADC #1 | significant increased agonist activity |
